Measurements published in PubChem BioAssay AID1918999 (Molecular Pharmacology Branch, DTP, NCI, 2023).
“And” between values parts separate entries of the source, which are not always exact repeats. Equal values may be shown once.

System: 556581-035-R-J1-PDC complex spheroid growth
Test: Anticancer human tumor 556581-035-R-J1-PDC patient-derived ovarian carcinoma cell line growth inhibition [AhR]
Settings: for viability, T/C: stronger effect = lower value
How it was run: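 Complex tumor spheroids co-cultured with HUVEC and human MSC stroma; AhR antagonists tested in combination with standard-of-care and investigational agents. Top concentration at or near clinical Cmax (else 10 microM), half-log dilutions; growth expressed as percent test/control.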

[1] = curve of first compound, second compound 0.1 µM
[2] = curve of first compound, second compound 0.316 µM
[3] = curve of first compound, second compound 1 µM
[4] = curve of first compound, second compound 3.16 µM
[5] = curve of first compound, second compound 10 µM
[6] = second compound 0.1 µM, first compound 0.0316 µM
[7] = second compound 0.1 µM, first compound 0.1 µM
[8] = second compound 0.1 µM, first compound 0.316 µM
[9] = second compound 0.1 µM, first compound 1 µM
[10] = second compound 0.1 µM, first compound 3.16 µM
[11] = second compound 0.1 µM, first compound 10 µM
[12] = second compound 0.316 µM, first compound 0.0316 µM
[13] = second compound 0.316 µM, first compound 0.1 µM
[14] = second compound 0.316 µM, first compound 0.316 µM
[15] = second compound 0.316 µM, first compound 1 µM
[16] = second compound 0.316 µM, first compound 3.16 µM
[17] = second compound 0.316 µM, first compound 10 µM
[18] = second compound 1 µM, first compound 0.0316 µM
[19] = second compound 1 µM, first compound 0.1 µM
[20] = second compound 1 µM, first compound 0.316 µM
[21] = second compound 1 µM, first compound 1 µM
[22] = second compound 1 µM, first compound 3.16 µM
[23] = second compound 1 µM, first compound 10 µM
[24] = second compound 3.16 µM, first compound 0.0316 µM
[25] = second compound 3.16 µM, first compound 0.1 µM
[26] = second compound 3.16 µM, first compound 0.316 µM
[27] = second compound 3.16 µM, first compound 1 µM
[28] = second compound 3.16 µM, first compound 3.16 µM
[29] = second compound 3.16 µM, first compound 10 µM
[30] = second compound 10 µM, first compound 0.0316 µM
[31] = second compound 10 µM, first compound 0.1 µM
[32] = second compound 10 µM, first compound 0.316 µM
[33] = second compound 10 µM, first compound 1 µM
[34] = second compound 10 µM, first compound 3.16 µM
[35] = second compound 10 µM, first compound 10 µM
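Wherever viability, T/C is given: compound exposure lasted 7 days; 100% = DMSO vehicle control growth.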

NS(=O)(=O)OCC1CC(n2ccc3c(NC4CCc5ccccc54)ncnc32)CC1O (centres undefined) + Cc1ccccc1N=Nc1ccc(NC(=O)c2ccnn2C)c(C)c1
IC50 [1]: > 10 µM | IC50 [2]: > 10 µM | IC50 [3]: > 10 µM | IC50 [4]: > 10 µM | IC50 [5]: > 10 µM | viability, T/C [6]: 101% | viability, T/C [7]: 103% | viability, T/C [8]: 103% | viability, T/C [9]: 108% | viability, T/C [10]: 106% | viability, T/C [11]: 82.2% | viability, T/C [12]: 105% | viability, T/C [13]: 104% | viability, T/C [14]: 97.2% | viability, T/C [15]: 103% | viability, T/C [16]: 93.9% | viability, T/C [17]: 80.2% | viability, T/C [18]: 92.9% | viability, T/C [19]: 102% | viability, T/C [20]: 101% | viability, T/C [21]: 101% | viability, T/C [22]: 95.7% | viability, T/C [23]: 79.7% | viability, T/C [24]: 97.1% | viability, T/C [25]: 96.5% | viability, T/C [26]: 89.3% | viability, T/C [27]: 89.7% | viability, T/C [28]: 88.8% | viability, T/C [29]: 73.3% | viability, T/C [30]: 91.3% | viability, T/C [31]: 80% | viability, T/C [32]: 89.8% | viability, T/C [33]: 88.2% | viability, T/C [34]: 83.6% | viability, T/C [35]: 69.6%

CC1(C)CCC(CN2CCN(c3ccc(C(=O)NS(=O)(=O)c4ccc(NCC5CCOCC5)c([N+](=O)[O-])c4)c(Oc4cnc5[nH]ccc5c4)c3)CC2)=C(c2ccc(Cl)cc2)C1 + CC(CO)NC(=O)c1cc(-c2ccc(Cl)cc2)nn(-c2cnn(C)c2)c1=O
IC50 [1]: > 10 µM | IC50 [2]: > 10 µM | IC50 [3]: > 10 µM | IC50 [4]: > 10 µM | IC50 [5]: > 10 µM | viability, T/C [6]: 99.2% | viability, T/C [7]: 111% | viability, T/C [8]: 114% | viability, T/C [9]: 90.7% | viability, T/C [10]: 96.5% | viability, T/C [11]: 90.1% | viability, T/C [12]: 99.3% | viability, T/C [13]: 116% | viability, T/C [14]: 102% | viability, T/C [15]: 97.2% | viability, T/C [16]: 98.6% | viability, T/C [17]: 82.8% | viability, T/C [18]: 117% | viability, T/C [19]: 117% | viability, T/C [20]: 105% | viability, T/C [21]: 106% | viability, T/C [22]: 103% | viability, T/C [23]: 79.5% | viability, T/C [24]: 104% | viability, T/C [25]: 106% | viability, T/C [26]: 105% | viability, T/C [27]: 122% | viability, T/C [28]: 94% | viability, T/C [29]: 73% | viability, T/C [30]: 109% | viability, T/C [31]: 115% | viability, T/C [32]: 115% | viability, T/C [33]: 122% | viability, T/C [34]: 99% | viability, T/C [35]: 85.7%

CC(C)CC(NC(=O)C(Cc1ccccc1)NC(=O)c1cnccn1)B(O)O (centres undefined)
viability, T/C (compound 0.000949 µM): 105% and 95.7% and 87.9% | viability, T/C (compound 0.003 µM): 101% and 97.8% and 87.1% | viability, T/C (compound 0.00949 µM): 13.2% and 10.6% and 2.65% | viability, T/C (compound 0.03 µM): 1.02% and 0.36% and 1.1% | viability, T/C (compound 0.0949 µM): 0.22% and 0.29% and 0.24% | viability, T/C (compound 0.3 µM): 0.28% and 0.29% and 0.34% | IC50 (curve of compound): 0.00587 µM and 0.00561 µM and 0.00498 µM

O=C(C=Cn1cnc(-c2cc(C(F)(F)F)cc(C(F)(F)F)c2)n1)NNc1cnccn1
viability, T/C (compound 0.00949 µM): 91.3% (2×) and 109% | viability, T/C (compound 0.03 µM): 104% and 93.8% and 98.7% | viability, T/C (compound 0.0949 µM): 89.4% and 85% and 83.4% | viability, T/C (compound 0.3 µM): 80.2% and 78.5% and 72.8% | viability, T/C (compound 0.949 µM): 65.8% and 77.7% and 69.5% | viability, T/C (compound 3 µM): 44.5% and 54% and 67.8% | IC50 (curve of compound): 2.22 µM and > 3 µM

CC(C)c1c(-c2ccccc2)nc2c(C#N)c[nH]n2c1=O + CC(CO)NC(=O)c1cc(-c2ccc(Cl)cc2)nn(-c2cnn(C)c2)c1=O
IC50 [1]: > 10 µM | IC50 [2]: > 10 µM | IC50 [3]: > 10 µM | IC50 [4]: > 10 µM | IC50 [5]: > 10 µM | viability, T/C [6]: 109% | viability, T/C [7]: 97.8% | viability, T/C [8]: 95.2% | viability, T/C [9]: 102% | viability, T/C [10]: 90.2% | viability, T/C [11]: 97.4% | viability, T/C [12]: 106% | viability, T/C [13]: 105% | viability, T/C [14]: 95.9% | viability, T/C [15]: 96.5% | viability, T/C [16]: 106% | viability, T/C [17]: 97.5% | viability, T/C [18]: 110% | viability, T/C [19]: 112% | viability, T/C [20]: 108% | viability, T/C [21]: 107% | viability, T/C [22]: 113% | viability, T/C [23]: 95.8% | viability, T/C [24]: 106% | viability, T/C [25]: 95.5% | viability, T/C [26]: 116% | viability, T/C [27]: 100% | viability, T/C [28]: 106% | viability, T/C [29]: 99.2% | viability, T/C [30]: 108% | viability, T/C [31]: 117% | viability, T/C [32]: 111% | viability, T/C [33]: 97.8% | viability, T/C [34]: 104% | viability, T/C [35]: 97.1%

CC(C)CC(NC(=O)C(Cc1ccccc1)NC(=O)c1cnccn1)B(O)O (centres undefined) + CC(CO)NC(=O)c1cc(-c2ccc(Cl)cc2)nn(-c2cnn(C)c2)c1=O
IC50 [1]: 0.005 µM | IC50 [2]: 0.00457 µM | IC50 [3]: 0.00543 µM | IC50 [4]: 0.0047 µM | IC50 [5]: 0.00522 µM | viability, T/C (second compound 0.1 µM, first compound 0.000949 µM): 91.6% | viability, T/C (second compound 0.1 µM, first compound 0.003 µM): 88.4% | viability, T/C (second compound 0.1 µM, first compound 0.00949 µM): 1.95% | viability, T/C (second compound 0.1 µM, first compound 0.03 µM): 0.49% | viability, T/C (second compound 0.1 µM, first compound 0.0949 µM): 0.12% | viability, T/C (second compound 0.1 µM, first compound 0.3 µM): 0.33% | viability, T/C (second compound 0.316 µM, first compound 0.000949 µM): 106% | viability, T/C (second compound 0.316 µM, first compound 0.003 µM): 77.9% | viability, T/C (second compound 0.316 µM, first compound 0.00949 µM): 1.51% | viability, T/C (second compound 0.316 µM, first compound 0.03 µM): 2.26% | viability, T/C (second compound 0.316 µM, first compound 0.0949 µM): 0.2% | viability, T/C (second compound 0.316 µM, first compound 0.3 µM): 0.8% | viability, T/C (second compound 1 µM, first compound 0.000949 µM): 105% | viability, T/C (second compound 1 µM, first compound 0.003 µM): 99.7% | viability, T/C (second compound 1 µM, first compound 0.00949 µM): 3.31% | viability, T/C (second compound 1 µM, first compound 0.03 µM): 0.19% | viability, T/C (second compound 1 µM, first compound 0.0949 µM): 0.15% | viability, T/C (second compound 1 µM, first compound 0.3 µM): 0.27% | viability, T/C (second compound 3.16 µM, first compound 0.000949 µM): 85.7% | viability, T/C (second compound 3.16 µM, first compound 0.003 µM): 81% | viability, T/C (second compound 3.16 µM, first compound 0.00949 µM): 0.92% | viability, T/C (second compound 3.16 µM, first compound 0.03 µM): 2.07% | viability, T/C (second compound 3.16 µM, first compound 0.0949 µM): 1.26% | viability, T/C (second compound 3.16 µM, first compound 0.3 µM): 1.55% | viability, T/C (second compound 10 µM, first compound 0.000949 µM): 99.6% | viability, T/C (second compound 10 µM, first compound 0.003 µM): 94.2% | viability, T/C (second compound 10 µM, first compound 0.00949 µM): 2.36% | viability, T/C (second compound 10 µM, first compound 0.03 µM): 0.3% | viability, T/C (second compound 10 µM, first compound 0.0949 µM): 0.55% | viability, T/C (second compound 10 µM, first compound 0.3 µM): 0.95%

O=C(c1cc(Cc2n[nH]c(=O)c3ccccc23)ccc1F)N1CCN(C(=O)C2CC2)CC1 + Cc1ccccc1N=Nc1ccc(NC(=O)c2ccnn2C)c(C)c1
IC50 [1]: > 10 µM | IC50 [2]: > 10 µM | IC50 [3]: > 10 µM | IC50 [4]: > 10 µM | IC50 [5]: > 10 µM | viability, T/C [6]: 100% | viability, T/C [7]: 92.5% | viability, T/C [8]: 89.2% | viability, T/C [9]: 95% | viability, T/C [10]: 78.3% | viability, T/C [11]: 76.1% | viability, T/C [12]: 103% | viability, T/C [13]: 88.2% | viability, T/C [14]: 87.8% | viability, T/C [15]: 97.3% | viability, T/C [16]: 87.8% | viability, T/C [17]: 72.3% | viability, T/C [18]: 92.7% | viability, T/C [19]: 96.8% | viability, T/C [20]: 93.3% | viability, T/C [21]: 99.5% | viability, T/C [22]: 93.3% | viability, T/C [23]: 76.6% | viability, T/C [24]: 89% | viability, T/C [25]: 93.7% | viability, T/C [26]: 84.2% | viability, T/C [27]: 80.9% | viability, T/C [28]: 82.4% | viability, T/C [29]: 77.5% | viability, T/C [30]: 78.2% | viability, T/C [31]: 82.3% | viability, T/C [32]: 82.5% | viability, T/C [33]: 82.6% | viability, T/C [34]: 82.4% | viability, T/C [35]: 74.8%
